According to ChEMBL document CHEMBL1201862, “PubChem BioAssay data set” (2004):
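A five-concentration, 48-hour dose response in 96-well plates underlies each endpoint, interpolated linearly between surrounding concentrations. GI50 = concentration required for 50% inhibition of growth.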 Activity calls are given as the source filed them. No stated cut-off is given here; in the data, active = GI50 up to about 1.1 µM and inactive = higher.

How the values were obtained:
Assay in all cases: DTP human tumour cell line panel, 48 h
CAKI-1 = system: CAKI-1
EKVX = system: EKVX
HCT-15 = system: HCT-15
HOP-62 = system: HOP-62
IGROV-1 = system: IGROV-1
M14 = system: M14
NCI-H226 = system: NCI-H226
NCI-H460 = system: NCI-H460
OVCAR-3 = system: OVCAR-3
OVCAR-5 = system: OVCAR-5
SF-268 = system: SF-268
SF-295 = system: SF-295
SF-539 = system: SF-539
SK-OV-3 = system: SK-OV-3
SN12C = system: SN12C
SNB-19 = system: SNB-19
SNB-75 = system: SNB-75
SR = system: SR
TK-10 = system: TK-10
UO-31 = system: UO-31

SMILES | GI50 (CAKI-1) | GI50 (EKVX) | GI50 (HCT-15) [µM] | GI50 (HOP-62) | GI50 (IGROV-1) | GI50 (M14) | GI50 (NCI-H226) | GI50 (NCI-H460) | GI50 (OVCAR-3) | GI50 (OVCAR-5) | GI50 (SF-268) | GI50 (SF-295) | GI50 (SF-539) | GI50 (SK-OV-3) | GI50 (SN12C) | GI50 (SNB-19) | GI50 (SNB-75) | GI50 (SR) | GI50 (TK-10) | GI50 (UO-31)
COc1ccc(/C(Cl)=C(\C=O)c2ccc(Cl)cc2)cc1OC | 4.59 µM (inactive) | 4.47 µM (inactive) | 3.29 | 15.9 µM (inactive) | 8.89 µM (inactive) | 22.4 µM (inactive) | 4.59 µM (inactive) | 3.54 µM (inactive) | 5.74 µM (inactive) | 85.1 µM (inactive) | 12.3 µM (inactive) | 4.15 µM (inactive) | 9.79 µM (inactive) | 34.8 µM (inactive) | 3.72 µM (inactive) | 6.73 µM (inactive) | 3.85 µM (inactive) | 2.49 µM (inactive) | 5.26 µM (inactive) | 4.68 µM (inactive)
Cn1nc2ccc3nccc(NCCNCCCl)c3c2n1 | > 10 µM (inactive) | > 100 µM (inactive) | > 100 | > 100 µM (inactive) | > 100 µM (inactive) | > 100 µM (inactive) | > 100 µM (inactive) | > 100 µM (inactive) | > 100 µM (inactive) | > 100 µM (inactive) | > 100 µM (inactive) | > 100 µM (inactive) | > 100 µM (inactive) | > 100 µM (inactive) | > 100 µM (inactive) | > 100 µM (inactive) | > 100 µM (inactive) | > 100 µM (inactive) | > 100 µM (inactive) | > 100 µM (inactive)
CN(Cc1cnc2c(N)nc(N)nc2n1)c1ccc(Cl)cc1 | > 100 µM (inactive) | > 100 µM (inactive) | 71.6 | 39.3 µM (inactive) | 13.7 µM (inactive) | 73.8 µM (inactive) | 1.91 µM (inactive) | 42.5 µM (inactive) | > 100 µM (inactive) | > 100 µM (inactive) | 33.6 µM (inactive) | 72.1 µM (inactive) | 24.3 µM (inactive) | 26.2 µM (inactive) | > 100 µM (inactive) | 33.3 µM (inactive) | 12.5 µM (inactive) | 62.2 µM (inactive) | 38.7 µM (inactive) | 47.1 µM (inactive)
